{"source": "patent US11111264B2", "about": "“Morphic forms of 4-amino-7-(3,4-dihydroxy-5-(hydroxymethyl)tetrahydrofuran-2-yl)-2-methyl-7H-pyrrolo[2,3-d]pyrimidine-5-carboxamide and uses thereof” (Chimerix, Inc., priority 2017, dated 2021)", "assay_type_in_all_cases": "physicochemical", "key": {"[1]": {"assay": "Dynamic vapor sorption (DVS)", "settings": "25° C.; for crystal form after DVS (PXRD): 50% to 0% to 95% to 50% relative humidity; for hygroscopicity (from DVS): mass as a function of relative humidity", "from_the_text": "FIG. 20A is a DVS diagram of a sample of Compound 1, Form A as a function of time and the applied change in relative humidity. Line A represents the relative weight of the sample at each relative humidity. Line B represents the applied relative humidity (i.e., the applied measurement program). FIG. 20B is a DVS diagram of a sample of Compound 1, Form A as a function of the applied relative humidity. FIG. 20A and FIG. 20B were obtained using a Sorptions Prufsystem ProUmid system using a scan rate of 5% relative humidity per hour at a temperature of 25° C.\nDVS measurements were performed with an SPS11-100n “Sorptions Prufsystem” of Projekt Messtechnik”, D-89077 Ulm (Germany). About 20 to 100 mg of sample were put into an aluminum sample pan. Humidity change rates of 5% per hour were used. The applied measurement program is visualized in the figures."}, "[2]": {"assay": "Suspension equilibration of Compound 1, Form A in organic solvents", "method": "Compound 1, Form A was stirred in methanol at room temperature for six days. […] At least 90% of Form A was still present.\nAdditionally, Compound 1, Form A was stirred in acetonitrile at a temperature ranging between 52° C. and 75° C. for five days."}, "[3]": {"assay": "Thermodynamic stability: stirring a mixture of Forms A-G in solvent/water, PXRD", "settings": "for PXRD after stirring mixture of Forms A, B, C, D, E, F and G: four days at room temperature", "from_the_text": "A mixture of Compound 1, Forms A, B, C, D, E, F and G was stirred in DMF/water 1:1 v/v (water activity about 0.79).\nA mixture of Compound 1, Forms A, B, C, D, E, F and G was stirred in methanol/water 95:5 v/v (water activity about 0.18)."}}, "data": [{"smiles": "Cc1nc(N)c2c(C(N)=O)cn([C@@H]3O[C@H](CO)[C@@H](O)[C@H]3O)c2n1", "note": "[Form B, 4-amino-7-((2R,3R,4S,5R)-3,4-dihydroxy-5-(hydroxymethyl)tetrahydrofuran-2-yl)-2-methyl-7H-pyrrolo[2,3-d]pyrimidine-5-carboxamide]", "values": [{"measurement": "crystal form after DVS (PXRD)", "setting": "[1]", "result": "transform in to Form A"}, {"measurement": "hygroscopicity (from DVS)", "setting": "[1]", "result": "hygroscopic"}]}, {"smiles": "Cc1nc(N)c2c(C(N)=O)cn([C@@H]3O[C@H](CO)[C@@H](O)[C@H]3O)c2n1", "note": "[Form A, 4-amino-7-((2R,3R,4S,5R)-3,4-dihydroxy-5-(hydroxymethyl)tetrahydrofuran-2-yl)-2-methyl-7H-pyrrolo[2,3-d]pyrimidine-5-carboxamide]", "values": [{"measurement": "desorption of water (DVS)", "setting": "[1]; 0% R.H., 5% relative humidity per hour", "result": "≤ 0.1", "unit": "% m/m"}, {"measurement": "crystal form after DVS (PXRD)", "setting": "[1]", "result": "same pattern as the sample before DVS"}, {"measurement": "hygroscopicity (from DVS)", "setting": "[1]", "result": "non-hygroscopic"}, {"measurement": "resulting crystalline material (PXRD)", "setting": "[2]; stirred in acetonitrile between 52° C. and 75° C. for five days", "result": "PXRD pattern similar to Compound 1, Form D"}, {"measurement": "Form A still present (PXRD)", "setting": "[2]; stirred in methanol at room temperature for six days", "result": "At least 90%"}, {"measurement": "PXRD after stirring mixture of Forms A, B, C, D, E, F and G", "setting": "[3]; DMF/water 1:1 v/v (water activity about 0.79)", "result": "only the peaks of crystal form A"}, {"measurement": "relative thermodynamic stability among the seven morphic forms", "setting": "[3]; conclusion from both slurry experiments", "result": "most thermodynamically stable"}, {"measurement": "PXRD after stirring mixture of Forms A, B, C, D, E, F and G", "setting": "[3]; methanol/water 95:5 v/v (water activity about 0.18)", "result": "only the peaks of crystal form A"}]}, {"smiles": "Cc1nc(N)c2c(C(N)=O)cn([C@@H]3O[C@H](CO)[C@@H](O)[C@H]3O)c2n1", "note": "[Form E, 4-amino-7-((2R,3R,4S,5R)-3,4-dihydroxy-5-(hydroxymethyl)tetrahydrofuran-2-yl)-2-methyl-7H-pyrrolo[2,3-d]pyrimidine-5-carboxamide]", "values": [{"measurement": "crystal form after DVS (PXRD)", "setting": "[1]", "result": "transformed into Form A"}, {"measurement": "hygroscopicity (from DVS)", "setting": "[1]", "result": "hygroscopic"}]}, {"smiles": "Cc1nc(N)c2c(C(N)=O)cn([C@@H]3O[C@H](CO)[C@@H](O)[C@H]3O)c2n1", "note": "[Form D, 4-amino-7-((2R,3R,4S,5R)-3,4-dihydroxy-5-(hydroxymethyl)tetrahydrofuran-2-yl)-2-methyl-7H-pyrrolo[2,3-d]pyrimidine-5-carboxamide]", "values": [{"measurement": "crystal form after DVS (PXRD)", "setting": "[1]", "result": "remained as Form D"}, {"measurement": "hygroscopicity (from DVS)", "setting": "[1]", "result": "hygroscopic"}]}]}
